# Reference: US20240016784A1, “Y BOX BINDING PROTEIN 1 INHIBITORS” (Oregon Health & Science University, priority 2020, published 2024)
# What was measured:
# Assay type in all cases: cell-based
# [1] = tested on: OVCAR4, OVCAR5 and ID8 cells; assay: Cell viability (MTT) assay, ovarian cancer cell lines; conditions: 48 h of treatment
# Source text: We tested the relationship between AzPs dose and the viability of human ovarian cancer cell lines and the ID8 murine ovarian cancer cell line.
# FIG. 1A) Lead optimization of SU093 to obtain SU056. FIG. 1B) IC50 values of SU093 and SU056 on various ovarian cancer cells. Clonogenic survival of OC cells treated with SU093 or SU056. […] FIG. 1C) Representative colony formation from respective wells. FIG. 1D) Number of colonies formed after SU093 and SU056 treatment. […] FIG. 1F) Cell cycle distribution of propidium iodide (PI)-stained OVCAR8, SKOV3, and ID8 cells. […] FIG. 1G) Effects of SU093 and SU056 on apoptotic cell death analyzed by Annexin-FITC staining. […] FIG. 1H) Cell migration assay.
# [2] = tested on: MDA-MB-231, MDA-MB-468 and SUM 159 cells; assay: Cell cycle distribution in TNBC cells (flow cytometry); conditions: 12 and 24 hr
# Procedure: FIG. 11A). The growth inhibitory effect of SU056 was evaluated using MTT assay. TNBC cell lines (MDA-MB-231, MDA-MB-468, SUM159, 4T1, E0771 and EMT6) were plated in 96 well plate. Next day, treated with vehicle (DMSO) alone or 0.005-50 μM of SU056 in fresh medium. After 48 hr of treatments, cell viability was measured using MTT assay. FIG. 11B). A total of 300-600 cells were plated per well of a 12-well plate and allowed to attach for 24 hr. […] Representative colony formations from respective wells of cell. FIG. 11C) Number of colonies formed after SU056 treatment. FIG. 11D) Effect of SU056 on cell cycle distribution in TNBC cells. MDA-MB-231, MDA-MB-468 and SUM 159 cells were treated with vehicle or SU056 for 12 and 24 hr. At the end of treatment, cells were collected and analysed using flow cytometry. […] SU056 induces level of phosphor-Histone H3 in cells at 12 and 24 hr.
# 786-0 = assay: NCI-60 cell line panel; conditions: Homo sapiens, 48 hours
# Source text: (§1) FIG. 17: Assay of SU056 in NCI-60 cell line panel.
# A549/ATCC = assay: NCI-60 cell line panel; conditions: Homo sapiens, 48 hours
# Source text: as §1
# ACHN = assay: NCI-60 cell line panel; conditions: Homo sapiens, 48 hours
# Source text: as §1
# DU-145 = assay: NCI-60 cell line panel; conditions: Homo sapiens, 48 hours
# Source text: as §1
# EKVX = assay: NCI-60 cell line panel; conditions: Homo sapiens, 48 hours
# Source text: as §1
# HCC-2998 = assay: NCI-60 cell line panel; conditions: Homo sapiens, 48 hours
# Source text: as §1
# HCT-116 = assay: NCI-60 cell line panel; conditions: Homo sapiens, 48 hours
# Source text: as §1
# HCT-15 = assay: NCI-60 cell line panel; conditions: Homo sapiens, 48 hours
# Source text: as §1
# HL-60(TB) = assay: NCI-60 cell line panel; conditions: Homo sapiens, 48 hours
# Source text: as §1
# HOP-62 = assay: NCI-60 cell line panel; conditions: Homo sapiens, 48 hours
# Source text: as §1
# HS 578T = assay: NCI-60 cell line panel; conditions: Homo sapiens, 48 hours
# Source text: as §1
# HT29 = assay: NCI-60 cell line panel; conditions: Homo sapiens, HT-29, 48 hours
# Source text: as §1
# IGROV1 = assay: NCI-60 cell line panel; conditions: Homo sapiens, IGROV-1, 48 hours
# Source text: as §1
# K-562 = assay: NCI-60 cell line panel; conditions: Homo sapiens, K562, 48 hours
# Source text: as §1
# LOX IMVI = assay: NCI-60 cell line panel; conditions: Homo sapiens, 48 hours
# Source text: as §1
# M14 = assay: NCI-60 cell line panel; conditions: Homo sapiens, 48 hours
# Source text: as §1
# MCF7 = assay: NCI-60 cell line panel; conditions: Homo sapiens, 48 hours
# Source text: as §1
# MDA-MB-435 = assay: NCI-60 cell line panel; conditions: Homo sapiens, 48 hours
# Source text: as §1
# NCI-H460 = assay: NCI-60 cell line panel; conditions: Homo sapiens, 48 hours
# Source text: as §1
# NCI/ADR-RES = assay: NCI-60 cell line panel; conditions: Homo sapiens, 48 hours
# Source text: as §1
# OVCAR-5 = assay: NCI-60 cell line panel; conditions: Homo sapiens, 48 hours
# Source text: as §1
# OVCAR-8 = assay: NCI-60 cell line panel; conditions: Homo sapiens, 48 hours
# Source text: as §1
# PC-3 = assay: NCI-60 cell line panel; conditions: Homo sapiens, 48 hours
# Source text: as §1
# RPMI-8226 = assay: NCI-60 cell line panel; conditions: Homo sapiens, 48 hours
# Source text: as §1
# RXF 393 = assay: NCI-60 cell line panel; conditions: Homo sapiens, 48 hours
# Source text: as §1
# SF-295 = assay: NCI-60 cell line panel; conditions: Homo sapiens, 48 hours
# Source text: as §1
# SF-539 = assay: NCI-60 cell line panel; conditions: Homo sapiens, 48 hours
# Source text: as §1
# SK-MEL-28 = assay: NCI-60 cell line panel; conditions: Homo sapiens, 48 hours
# Source text: as §1
# SK-MEL-2 = assay: NCI-60 cell line panel; conditions: Homo sapiens, 48 hours
# Source text: as §1
# SK-MEL-5 = assay: NCI-60 cell line panel; conditions: Homo sapiens, 48 hours
# Source text: as §1
# SK-OV-3 = assay: NCI-60 cell line panel; conditions: Homo sapiens, 48 hours
# Source text: as §1
# SNB-19 = assay: NCI-60 cell line panel; conditions: Homo sapiens, 48 hours
# Source text: as §1
# SNB-75 = assay: NCI-60 cell line panel; conditions: Homo sapiens, 48 hours
# Source text: as §1
# SR = assay: NCI-60 cell line panel; conditions: Homo sapiens, 48 hours
# Source text: as §1
# TK-10 = assay: NCI-60 cell line panel; conditions: Homo sapiens, 48 hours
# Source text: as §1
# UACC-257 = assay: NCI-60 cell line panel; conditions: Homo sapiens, 48 hours
# Source text: as §1
compound,measurement,setting,value
"O=C1OCC2=C1C(c1cccc(F)c1)c1cc3c(cc1N2CCO)OCO3 (centres unmarked) [SU056, 9-(3-fluorophenyl)-5-(2-hydroxyethyl)-6,9-dihydro-[1,3]dioxolo[4,5-g]furo[3,4-b]quinolin-8(5H)-one]",decrease of IC50 compared to SU093,[1],up to 2 fold
same,cell cycle distribution in TNBC cells,[2],G2/M phase arrest
same,IC50,786-0,1860 nM
same,IC50,A549/ATCC,8740 nM
same,IC50,ACHN,3030 nM
same,IC50,DU-145,2710 nM
same,IC50,EKVX,3030 nM
same,IC50,HCC-2998,7060 nM
same,IC50,HCT-116,1530 nM
same,IC50,HCT-15,1080 nM
same,IC50,HL-60(TB),1260 nM
same,IC50,HOP-62,2190 nM
same,IC50,HS 578T,1420 nM
same,IC50,HT29,1520 nM
same,IC50,IGROV1,4190 nM
same,IC50,K-562,353 nM
same,IC50,LOX IMVI,2350 nM
same,IC50,M14,357 nM
same,IC50,MCF7,1440 nM
same,IC50,MDA-MB-435,187 nM
same,IC50,NCI-H460,2080 nM
same,IC50,NCI/ADR-RES,2020 nM
same,IC50,OVCAR-5,4330 nM
same,IC50,OVCAR-8,3180 nM
same,IC50,PC-3,1460 nM
same,IC50,RPMI-8226,2280 nM
same,IC50,RXF 393,1510 nM
same,IC50,SF-295,1200 nM
same,IC50,SF-539,1130 nM
same,IC50,SK-MEL-28,20300 nM
same,IC50,SK-MEL-2,2460 nM
same,IC50,SK-MEL-5,1260 nM
same,IC50,SK-OV-3,1730 nM
same,IC50,SNB-19,3000 nM
same,IC50,SNB-75,820 nM
same,IC50,SR,294 nM
same,IC50,TK-10,15600 nM
same,IC50,UACC-257,50000 nM
